# Experimental data taken from the supplement of paper PMC10307832.
# Columns and labels:
# Experiment in all cases: relative viability (nuclei count vs DMSO), 5 days (fraction); higher = more cells survive
# NCI-H441 = tested on: NCI-H441
# Method in brief: (§1)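 Lung cancer cell lines in 1536-well plates were dosed by pin tool the day after seeding, either with one drug alone or with a fixed anchor-drug dose plus five library-drug doses (not always all listed) in √10 steps. After 5 days, cells were fixed and their nuclei stained in one step (final 0.05% Triton X-100, 1% formaldehyde, 1 ug/ml Hoechst), then counted on 4× images. Relative viability is the nuclei count in treated wells divided by that in vehicle wells. Values are medians of duplicate plates.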
# NCI-H1650 = tested on: NCI-H1650
# Method in brief: as §1
# NCI-H2023 = tested on: NCI-H2023
# Method in brief: as §1
# NCI-H1915 = tested on: NCI-H1915
# Method in brief: as §1
# LCLC-97TM1 = tested on: LCLC-97TM1
# Method in brief: as §1
# NCI-H727 = tested on: NCI-H727
# Method in brief: as §1
# H3255 = tested on: H3255
# Method in brief: as §1
# NCI-H520 = tested on: NCI-H520
# Method in brief: as §1
# NCI-H596 = tested on: NCI-H596
# Method in brief: as §1
# NCI-H1792 = tested on: NCI-H1792
# Method in brief: as §1
# NCI-H650 = tested on: NCI-H650
# Method in brief: as §1
# ABC-1 = tested on: ABC-1
# Method in brief: as §1
# NCI-H1944 = tested on: NCI-H1944
# Method in brief: as §1
# NCI-H1651 = tested on: NCI-H1651
# Method in brief: as §1
# HCC-15 = tested on: HCC-15
# Method in brief: as §1
# NCI-H661 = tested on: NCI-H661
# Method in brief: as §1
# BEN = tested on: BEN
# Method in brief: as §1
# A-427 = tested on: A-427
# Method in brief: as §1
# CAL-12T = tested on: CAL-12T
# Method in brief: as §1
# LC-2-ad = tested on: LC-2-ad
# Method in brief: as §1
# NCI-H2087 = tested on: NCI-H2087
# Method in brief: as §1
# NCI-H460 = tested on: NCI-H460
# Method in brief: as §1
# PC-3 [JPC-3] = tested on: PC-3 [JPC-3]
# Method in brief: as §1
# 201T = tested on: 201T
# Method in brief: as §1
smiles,measurement,setting,value
CC(C)Oc1cc(Nc2nc(N[C@@H](C)c3ccc(F)cn3)ncc2Cl)n[nH]1 [AZ23] + CS(=O)(=O)N1CCN(Cc2cc3nc(-c4cccc5[nH]ncc45)nc(N4CCOCC4)c3s2)CC1 [Pictilisib] (partner 1 µM),relative viability,NCI-H441; first compound 0.01 µM,0.658
same,relative viability,NCI-H441; first compound 0.03162 µM,0.601
same,relative viability,NCI-H441; first compound 0.3162 µM,0.457
same,relative viability,NCI-H1650; first compound 0.01 µM,0.553
same,relative viability,NCI-H1650; first compound 0.03162 µM,0.585
same,relative viability,NCI-H1650; first compound 0.3162 µM,0.514
same,relative viability,NCI-H2023; first compound 0.03162 µM,0.248
same,relative viability,NCI-H2023; first compound 0.3162 µM,0.192
same,relative viability,NCI-H1915; first compound 0.01 µM,0.988
same,relative viability,NCI-H1915; first compound 0.03162 µM,0.979
same,relative viability,NCI-H1915; first compound 0.3162 µM,0.945
same,relative viability,LCLC-97TM1; first compound 0.01 µM,0.134
same,relative viability,LCLC-97TM1; first compound 0.03162 µM,0.225
same,relative viability,LCLC-97TM1; first compound 0.3162 µM,0.157
same,relative viability,NCI-H727; first compound 0.01 µM,0.268
same,relative viability,NCI-H727; first compound 0.03162 µM,0.422
same,relative viability,NCI-H727; first compound 0.3162 µM,0.329
same,relative viability,H3255; first compound 0.01 µM,0.484
same,relative viability,H3255; first compound 0.03162 µM,0.519
same,relative viability,H3255; first compound 0.3162 µM,0.494
same,relative viability,NCI-H520; first compound 0.01 µM,0.327
same,relative viability,NCI-H520; first compound 0.03162 µM,0.309
same,relative viability,NCI-H520; first compound 0.3162 µM,0.304
same,relative viability,NCI-H596; first compound 0.01 µM,0.359
same,relative viability,NCI-H596; first compound 0.03162 µM,0.342
same,relative viability,NCI-H596; first compound 0.3162 µM,0.397
same,relative viability,NCI-H1792; first compound 0.01 µM,0.248
same,relative viability,NCI-H1792; first compound 0.03162 µM,0.291
same,relative viability,NCI-H1792; first compound 0.3162 µM,0.302
same,relative viability,NCI-H650; first compound 0.01 µM,0.841
same,relative viability,NCI-H650; first compound 0.03162 µM,0.869
same,relative viability,NCI-H650; first compound 0.3162 µM,1.1
same,relative viability,ABC-1; first compound 0.01 µM,0.634
same,relative viability,ABC-1; first compound 0.03162 µM,0.909
same,relative viability,ABC-1; first compound 0.3162 µM,0.841
same,relative viability,NCI-H1944; first compound 0.01 µM,0.342
same,relative viability,NCI-H1944; first compound 0.03162 µM,0.353
same,relative viability,NCI-H1944; first compound 0.3162 µM,0.319
same,relative viability,NCI-H1651; first compound 0.01 µM,0.443
same,relative viability,NCI-H1651; first compound 0.03162 µM,0.542
same,relative viability,NCI-H1651; first compound 0.3162 µM,0.665
same,relative viability,HCC-15; first compound 0.01 µM,0.968
same,relative viability,HCC-15; first compound 0.03162 µM,0.73
same,relative viability,HCC-15; first compound 0.3162 µM,0.782
same,relative viability,NCI-H661; first compound 0.01 µM,0.402
same,relative viability,NCI-H661; first compound 0.03162 µM,0.446
same,relative viability,NCI-H661; first compound 0.3162 µM,0.423
same,relative viability,BEN; first compound 0.01 µM,0.527
same,relative viability,BEN; first compound 0.03162 µM,0.639
same,relative viability,BEN; first compound 0.3162 µM,0.653
same,relative viability,A-427; first compound 0.01 µM,0.819
same,relative viability,A-427; first compound 0.03162 µM,0.716
same,relative viability,A-427; first compound 0.3162 µM,0.62
same,relative viability,CAL-12T; first compound 0.03162 µM,0.418
same,relative viability,CAL-12T; first compound 0.3162 µM,0.406
same,relative viability,LC-2-ad; first compound 0.01 µM,0.386
same,relative viability,LC-2-ad; first compound 0.03162 µM,0.574
same,relative viability,LC-2-ad; first compound 0.3162 µM,0.357
same,relative viability,NCI-H2087; first compound 0.01 µM,0.867
same,relative viability,NCI-H2087; first compound 0.03162 µM,1.06
same,relative viability,NCI-H2087; first compound 0.3162 µM,0.964
same,relative viability,NCI-H460; first compound 0.01 µM,0.3
same,relative viability,NCI-H460; first compound 0.03162 µM,0.567
same,relative viability,NCI-H460; first compound 0.3162 µM,0.348
same,relative viability,PC-3 [JPC-3]; first compound 0.01 µM,0.807
same,relative viability,PC-3 [JPC-3]; first compound 0.03162 µM,0.833
same,relative viability,PC-3 [JPC-3]; first compound 0.3162 µM,0.807
same,relative viability,201T; first compound 0.01 µM,0.685
same,relative viability,201T; first compound 0.03162 µM,0.683
same,relative viability,201T; first compound 0.3162 µM,0.69
